{"source": "patent US7915402B2", "about": "“Antioxidant inflammation modulators: oleanolic acid derivatives with saturation in the C-ring” (Reata Pharmaceuticals, Inc., priority 2008, dated 2011)", "key": {"[1]": {"system": "thioredoxin reductase-1 (TrxR1)", "assay": "Nrf2 target gene induction, TrxR1 mRNA (qPCR)", "type": "cell-based, human", "conditions": "MDA-MB-435 cells, 16 hours", "experimental": "(§1) FIG. 21. Induction of HO-1, TrxR1 and γ-GCS. MDA-MB-435 human melanoma cells were treated with vehicle (DMSO) or the indicated compounds and concentrations for 16 hours. HO-1, thioredoxin reductase-1 (TrxR1), and γ-glutamylcysteine synthetase (γ-GCS) mRNA levels were quantified using qPCR and were normalized relative to a DMSO-treated sample run in parallel. Values are averages of duplicate wells.\nFIG. 22. Induction of TrxR1. MDA-MB-435 human melanoma cells were treated with vehicle (DMSO) or the indicated compounds and concentrations for 16 hours. Thioredoxin reductase-1 (TrxR1) mRNA levels were quantified using qPCR and were normalized relative to a DMSO-treated sample run in parallel. Values are averages of duplicate wells. Compounds 401, 402-19 and 402-53 are comparison compounds (see Example 1).\nas §1, with “Nrf2 target gene induction.” for “FIG. 21. Induction of HO-1, TrxR1 and γ-GCS.”, “(TrxR1),” for “(TrxR1), and”, “(γ-GCS), and ferritin heavy chain” for “(γ-GCS)”, “wells. Primer sequences are as follows.” for “wells.”"}, "[2]": {"assay": "Plasma pharmacokinetics after oral dosing in monkeys", "type": "in vivo", "conditions": "cynomolgus monkey; for Mean Maximum 404-02 Plasma Concentration (nM) ± SEM / Mean Maximum 404-02 Plasma Concentration (ng/mL) ± SEM: oral gavage", "experimental": "Doses were prepared in sesame oil and individualized to body weight on the day of dosing. Blood was drawn prior to dosing and at 1, 2, 4, 8 and 24 hours post -dose on days 1 and 12. Blood samples were collected from the femoral artery/vein for determination of 404-02 plasma concentrations. Blood was placed in tubes containing K3EDTA and stored on ice until centrifugation at room temperature. The isolated plasma was transferred to cryovials and stored at −80° C. until sample processing and LC -MS/MS analysis. Extracted plasma standard curves were prepared from fresh stock solutions and analyzed prior to study samples.\nPopulation mean pharmacokinetic parameter estimates were obtained by performing non-compartmental analysis of the 404-02 plasma concentration-versus-time data using WinNonlin™ software version 5.2.\nPharmacokinetic parameters obtained using non-compartmental analysis, WinNonlin™ version 5.2.\nPharmacokinetic parameters were obtained using non-compartmental analysis using WinNonlin™ version 5.2 software."}, "[3]": {"assay": "Plasma pharmacokinetics after oral dosing in rats", "type": "in vivo, Sprague Dawley rats", "conditions": "SD rats, oral gavage", "experimental": "Compound 404-02 reaches high concentrations in the lung and CNS of rats following oral dosing: To assess basic pharmacokinetic parameters following oral dosing, 9 male and 9 female Sprague Dawley (SD) rats were administered 404-02 at 1, 10 or 50 mg/kg doses via oral gavage. Doses were prepared in sesame oil and individualized to body weight on the day of dosing. Blood was drawn at 0, 1, 2, 4, 8 and 24 hours post-dose on days 1 and 15. Blood was collected from the orbital sinus after carbon dioxide/oxygen inhalation for determination of 404-02 plasma concentrations. Plasma was transferred to cryovials and stored at −80° C. until processing and LC-MS/MS analysis. A standard curve was derived for 404-02 in rat plasma, and quantification of experimental results was based on this standard curve.\nPharmacokinetic parameters were obtained using non-compartmental analysis, WinNonlin™ version 5.2."}, "[4]": {"system": "IFNγ-induced NO production in RAW264.7 macrophages", "assay": "Suppression of IFNγ-induced NO production (Griess reagent)", "type": "cell-based, mouse", "conditions": "Mus musculus; RAW264.7, 20 ng/ml IFNγ 24 h, 2 h pre-treatment", "how_it_was_run": "(§2)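 Cells pre-treated with DMSO or compound at various nM concentrations for 2 h, then stimulated with 20 ng/ml recombinant mouse IFNγ for 24 h. Nitrite in medium measured by Griess reagent; viability read by WST-1.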"}, "mice": {"system": "mice", "conditions": "sesame oil, N=4"}, "RAW264.7 macrophages": {"system": "RAW264.7 macrophages", "assay": "Cell viability, WST-1 reagent", "type": "cell-based, mouse", "conditions": "Mus musculus, RAW264.7 (20 ng/ml IFNγ)", "how_it_was_run": "as §2"}, "[5]": {"system": "γ-glutamylcysteine synthetase (γ-GCS)", "assay": "Nrf2 target gene induction, γ-GCS mRNA (qPCR)", "type": "cell-based, human", "conditions": "MDA-MB-435 cells", "experimental": "as §1\nas §1, with “23.” for “21.”, “of” for “of HO-1, TrxR1 and”, “hours.” for “hours. HO-1, thioredoxin reductase-1 (TrxR1), and”\nas §1, with “Nrf2 target gene induction.” for “FIG. 21. Induction of HO-1, TrxR1 and γ-GCS.”, “(TrxR1),” for “(TrxR1), and”, “(γ-GCS), and ferritin heavy chain” for “(γ-GCS)”, “wells. Primer sequences are as follows.” for “wells.”"}, "HO-1": {"system": "HO-1", "assay": "Nrf2 target gene induction, HO-1 mRNA (qPCR)", "type": "cell-based, human", "conditions": "MDA-MB-435 cells, 250 nM; fold induction above DMSO control", "experimental": "as §1, with “FIGS. 17-20.” for “FIG. 21.”, “HO-1.” for “HO-1, TrxR1 and γ-GCS.”, “HO-1” for “HO-1, thioredoxin reductase-1 (TrxR1), and γ-glutamylcysteine synthetase (γ-GCS)”\nas §1\nas §1, with “Nrf2 target gene induction.” for “FIG. 21. Induction of HO-1, TrxR1 and γ-GCS.”, “(TrxR1),” for “(TrxR1), and”, “(γ-GCS), and ferritin heavy chain” for “(γ-GCS)”, “wells. Primer sequences are as follows.” for “wells.”"}, "[6]": {"conditions": "1 mg/kg/day, day 1, n=9/sex/dose level"}, "[7]": {"conditions": "1 mg/kg/day, day 15, n=9/sex/dose level"}, "[8]": {"conditions": "10 mg/kg/day, day 1, n=9/sex/dose level"}, "[9]": {"conditions": "10 mg/kg/day, day 15, n=9/sex/dose level"}, "[10]": {"conditions": "50 mg/kg/day, day 1, n=9/sex/dose level"}, "[11]": {"conditions": "50 mg/kg/day, day 15, n=9/sex/dose level"}}, "note": "Several values for one entry are separate records, joined by “and”; a condition that tells them apart may be missing. Identical values can stand only once. Like-named read-outs stand apart in the source and are kept apart here."}
{"smiles": "CC1(C)CC[C@]2(C(=O)NCC(F)(F)F)CC[C@]3(C)[C@H](C(=O)C[C@@H]4[C@@]5(C)C=C(C#N)C(=O)C(C)(C)[C@@H]5CC[C@]43C)[C@@H]2C1", "note": "[Compound 63102, (4aS,6aR,6bR,8aR,12aR,12bR,14aR,14bS)-11-cyano-2,2,6a,6b,9,9,12a-heptamethyl-10,14-dioxo-N-(2,2,2-trifluoroethyl)-1,2,3,4,4a,5,6,6a,6b,7,8,8a,9,10,12a,12b,13,14,14a,14b-icosahydropicene-4a-carboxamide]", "values": [{"measurement": "TrxR1 mRNA induction: concentration needed compared with unsaturated counterpart (402, 404)", "setting": "[1]", "value": "higher concentrations"}, {"measurement": "Mean Maximum 404-02 Plasma Concentration (nM) ± SEM", "setting": "[2]; 0.5 mg/kg/d, day 1, n=4", "value": "3.4 ± 0.61", "unit": "nM"}, {"measurement": "Mean Maximum 404-02 Plasma Concentration (ng/mL) ± SEM", "setting": "[2]; 0.5 mg/kg/d, day 1, n=4", "value": "1.95 ± 0.35", "unit": "ng/mL"}, {"measurement": "Mean Maximum 404-02 Plasma Concentration (ng/mL) ± SEM", "setting": "[2]; 0.5 mg/kg/d, day 12, n=4", "value": "2.65 ± 0.6", "unit": "ng/mL"}, {"measurement": "Mean Maximum 404-02 Plasma Concentration (nM) ± SEM", "setting": "[2]; 0.5 mg/kg/d, day 12, n=4, listed as 404-02, 0.5 mg/kg/day", "value": "4.6 nM and 4.6 ± 1.0 nM"}, {"measurement": "Mean Maximum 404-02 Plasma Concentration (nM) ± SEM", "setting": "[2]; 5 mg/kg/d, day 1, n=4", "value": "17.6 ± 6.6", "unit": "nM"}, {"measurement": "Mean Maximum 404-02 Plasma Concentration (ng/mL) ± SEM", "setting": "[2]; 5 mg/kg/d, day 1, n=4", "value": "10.1 ± 3.8", "unit": "ng/mL"}, {"measurement": "Mean Maximum 404-02 Plasma Concentration (ng/mL) ± SEM", "setting": "[2]; 5 mg/kg/d, day 12, n=4", "value": "7.3 ± 1.7", "unit": "ng/mL"}, {"measurement": "Mean Maximum 404-02 Plasma Concentration (nM) ± SEM", "setting": "[2]; 5 mg/kg/d, day 12, n=4, listed as 404-02, 5 mg/kg/day", "value": "12.7 nM and 12.7 ± 2.9 nM"}, {"measurement": "Mean Maximum 404-02 Plasma Concentration (nM) ± SEM", "setting": "[2]; 25 mg/kg/d, day 1, n=4", "value": "29.3 ± 2.3", "unit": "nM"}, {"measurement": "Mean Maximum 404-02 Plasma Concentration (ng/mL) ± SEM", "setting": "[2]; 25 mg/kg/d, day 1, n=4", "value": "16.8 ± 1.3", "unit": "ng/mL"}, {"measurement": "Mean Maximum 404-02 Plasma Concentration (ng/mL) ± SEM", "setting": "[2]; 25 mg/kg/d, day 12, n=4", "value": "10.0 ± 3.7", "unit": "ng/mL"}, {"measurement": "Mean Maximum 404-02 Plasma Concentration (nM) ± SEM", "setting": "[2]; 25 mg/kg/d, day 12, n=4, listed as 404-02, 25 mg/kg/day", "value": "17.5 nM and 17.5 ± 6.4 nM"}, {"measurement": "Mean Maximum 404-02 Plasma Concentration (nM) ± SEM", "setting": "[2]; 75 mg/kg/d, day 1, n=4", "value": "33.8 ± 4.7", "unit": "nM"}, {"measurement": "Mean Maximum 404-02 Plasma Concentration (ng/mL) ± SEM", "setting": "[2]; 75 mg/kg/d, day 1, n=4", "value": "19.4 ± 2.7", "unit": "ng/mL"}, {"measurement": "Mean Maximum 404-02 Plasma Concentration (nM) ± SEM", "setting": "[2]; 75 mg/kg/d, day 12, n=4, listed as 404-02, 75 mg/kg/day", "value": 48.6, "unit": "nM"}, {"measurement": "increase in AUC0-24hr after 12 days of dosing compared to day 1", "setting": "[2]; oral, 75 mg/kg dose level", "value": 1.6, "unit": "fold"}, {"measurement": "accumulation (AUC day 12 vs day 1)", "setting": "[2]; oral, other dose levels (0.5, 5, 25 mg/kg/day)", "value": "Accumulation was not observed"}, {"measurement": "Mean Maximum 404-02 Plasma Concentration (nM) ± SEM", "setting": "[3]; [6]", "value": "5.7 ± 1.1", "unit": "nM"}, {"measurement": "Mean Maximum 404-02 Plasma Concentration (ng/mL) ± SEM", "setting": "[3]; [6]", "value": "3.3 ± 0.65", "unit": "ng/mL"}, {"measurement": "Mean Maximum 404-02 Plasma Concentration (nM) ± SEM", "setting": "[3]; [7]", "value": "11.0 ± 1.6", "unit": "nM"}, {"measurement": "Mean Maximum 404-02 Plasma Concentration (ng/mL) ± SEM", "setting": "[3]; [7]", "value": "6.3 ± 0.9", "unit": "ng/mL"}, {"measurement": "Mean Maximum 404-02 Plasma Concentration (nM) ± SEM", "setting": "[3]; [8]", "value": "116 ± 28.7", "unit": "nM"}, {"measurement": "Mean Maximum 404-02 Plasma Concentration (ng/mL) ± SEM", "setting": "[3]; [8]", "value": "66 ± 16.5", "unit": "ng/mL"}, {"measurement": "Mean Maximum 404-02 Plasma Concentration (nM) ± SEM", "setting": "[3]; [9]", "value": "210 ± 42.3", "unit": "nM"}, {"measurement": "Mean Maximum 404-02 Plasma Concentration (ng/mL) ± SEM", "setting": "[3]; [9]", "value": "144 ± 24.3", "unit": "ng/mL"}, {"measurement": "Mean Maximum 404-02 Plasma Concentration (nM) ± SEM", "setting": "[3]; [10]", "value": "1241 ± 171", "unit": "nM"}, {"measurement": "Mean Maximum 404-02 Plasma Concentration (ng/mL) ± SEM", "setting": "[3]; [10]", "value": "713 ± 98.2", "unit": "ng/mL"}, {"measurement": "Mean Maximum 404-02 Plasma Concentration (nM) ± SEM", "setting": "[3]; [11]", "value": "1966 ± 199", "unit": "nM"}, {"measurement": "Mean Maximum 404-02 Plasma Concentration (ng/mL) ± SEM", "setting": "[3]; [11]", "value": "1129 ± 114", "unit": "ng/mL"}, {"measurement": "IC50", "setting": "[4]", "value": "~0.045", "unit": "µM"}, {"measurement": "Number of Deaths", "setting": "mice; oral gavage QDx14, 10 mg/kg", "value": 0}, {"measurement": "Number of Deaths", "setting": "mice; oral gavage QDx14, 50 mg/kg", "value": 0}, {"measurement": "Number of Deaths", "setting": "mice; oral gavage QDx14, 100 mg/kg", "value": 0}, {"measurement": "Number of Deaths", "setting": "mice; oral gavage QDx14, 250 mg/kg", "value": 0}, {"measurement": "IC50", "setting": "RAW264.7 macrophages", "value": "> 0.2", "unit": "µM"}, {"measurement": "γ-GCS induction", "setting": "[5]; 250 nM, fold induction above DMSO control", "value": 4.5, "unit": "fold"}, {"measurement": "γ-GCS mRNA induction: concentration needed compared with unsaturated counterpart (402, 404)", "setting": "[5]; 16 hours", "value": "higher concentrations"}, {"measurement": "HO-1 induction", "setting": "HO-1", "value": 3, "unit": "fold"}]}
